In ChEMBL document CHEMBL1146400, “10-Epi-olguine from Rabdosia ternifolia” (1997) one finds EC50 data, which are given here for one compound.

What all share (assay type): functional
Details in all cases: read-out: ED50 (the source's name)

Experiment [1] can be described thus: Cytotoxicity against human BC1 cells.
A further experiment relates to Lu1. Briefly: Cytotoxicity against human Lu1 cells.
A further experiment relates to Col2. Briefly: Cytotoxicity against human Col2 cells.
The next experiment has as its system KB. Briefly: Cytotoxicity against human KB cells.
Experiment [2] is described as follows: Cytotoxicity against human KBVIN cells in absence of vinblastine.
The next experiment relates to LNCaP. Description: Cytotoxicity against human LNCAP cells.
Experiment [3] is described as follows: Cytotoxicity against human KBVIN cells in presence of vinblastine.

≈ marks a conversion by molar mass, not a printed value.

For the compound `CC(=O)O[C@@H](C)[C@@H](/C=C/[C@@H]1O[C@@H]1[C@@H]1OC(=O)C=C[C@@H]1OC(C)=O)OC(C)=O`, the EC50 in experiment [1] was determined as 1.8 µg/mL (≈ 4.71 µM); in the experiment on Lu1, 4.8 µg/mL (≈ 12.6 µM); with Col2 it was 2.1 µg/mL (≈ 5.49 µM); with KB, 1.8 µg/mL (≈ 4.71 µM); in experiment [2] it was 2.1 µg/mL (≈ 5.49 µM); in the experiment with LNCaP, 1.2 µg/mL (≈ 3.14 µM). In addition, the EC50 in experiment [3] was found to be 2.2 µg/mL.
